Results on 16 compounds are retold here after patent publication US7368453B2, “Quinazolinone compounds with reduced bioaccumulation” (Chiron Corporation, priority 2003, dated 2008).

This data set is described as follows: Tissue half-life (t1/2) and Cmax in plasma, brain, kidney and liver after oral administration to CD-1 mice. Type of data set: in vivo, mouse. The settings on record: for half-life: male, mouse. On the procedure:
In vivo studies were conducted to observe the effect of the compounds of the invention in the subject animal. Male CD-1 mice, body weight of 20 grams at arrival, were used in these studies. Mice were given 30 mg/kg of compound in HPMC/Tween solution or suspension via oral gavage. Plasma, brain, and liver samples were collected at time periods of 1, 2, 4, 8, and 24 hours post dosing. One mouse was used per time point. Thus, a total of 5 mice were used for each compound tested. For sample collection, mice were euthanized with CO2. Blood samples were taken by cardiac puncture and kept on ice. Brain and liver samples were collected immediately after bleeding and the samples were kept on dry ice. For calculation of tissue half-lives (t1/2s), the terminal rate constant k was estimated by the absolute value of the slope of a log-linear regression of the terminal phase of the tissue concentration-time profile. The tissue half-life t1/2 is ln(2)/k.
The following table includes t1/2 data for plasma, brain, kidney, and liver obtained after oral administration.
Tissue Half-Life Data for Various Quinazolinone Compounds (PO)

[1] abbreviates: liver t1/2, 30 mg/kg oral gavage (PO), read-out: Half-Lives (h) Liver (converted).
The mark [2] stands for this setting: plasma t1/2, 30 mg/kg oral gavage (PO), read-out: Half-Lives (h) Plasma (converted).
The mark [3] stands for this setting: kidney t1/2, 30 mg/kg oral gavage (PO), read-out: Half-Lives (h) Kidney (converted).
Where [4] appears, read: brain t1/2, 30 mg/kg oral gavage (PO), read-out: Half-Lives (h) Brain (converted).

Like-named read-outs stand apart in the source and are kept apart here.

On to `C[C@@H]1[C@@H](N=C(Nc2ccc3c(=O)n(CCc4ccc(F)cc4)c(-c4cnccn4)nc3c2)N2CC(=O)N[C@@H](C)C2)C[C@H]2C[C@@H]1C2(C)C` [Example 218, (3S)-N-{3-[2-(4-fluorophenyl)ethyl]-4-oxo-2-pyrazin-2-yl-3,4-dihydroquinazolin-7-yl}-3-methyl-5-oxo-N′-[(1S,2S,3S,5R)-2,6,6-trimethylbicyclo[3.1.1]hept-3-yl]piperazine-1-carboximidamide], for which the half-life is, setting by setting: under setting [1], 3.9 h; under setting [2], 2.2 h.

Regarding `COc1ccc(CCn2cnc3cc(N/C(=N/C4C[C@@H]5C[C@H]([C@@H]4C)C5(C)C)N4CC(C)CC(C)C4)ccc3c2=O)c(F)c1` (stereo partly drawn) [Example 274, N-(3-{2-[2-fluoro-4-(methyloxy)phenyl]ethyl}-4-oxo-3,4-dihydro-7-quinazolinyl)-3,5-dimethyl-N-[(1R,2S,5S)-2,6,6-trimethylbicyclo[3.1.1]hept-3-yl]-1-piperidinecarboximidamide], the half-life is 2.7 h under setting [3], 2.3 h under setting [1] and 2.1 h under setting [2].

Take `C[C@@H]1[C@@H](N=C(Nc2ccc3c(=O)n(CCc4ccc(Br)cc4)c(-c4cccnc4)nc3c2)N2CCN[C@@H](C(F)F)C2)C[C@H]2C[C@@H]1C2(C)C` [Example 227, (3R)-N-{3-[2-(4-bromophenyl)ethyl]-4-oxo-2-pyridin-3-yl-3,4-dihydroquinazolin-7-yl}-3-(difluoromethyl)-N′-[(1S,2S,3S,5R)-2,6,6-trimethylbicyclo[3.1.1]hept-3-yl]piperazine-1-carboximidamide]: the half-life under setting [1] is 9.4 h and the half-life under setting [2] was 3.9 h.

Take `COc1ccc(CCn2c(C#N)nc3cc(NC(=NC4C[C@H]5C[C@@H]([C@@H]4C)C5(C)C)N4CCN[C@@H](CF)C4)ccc3c2=O)c(F)c1` (stereo partly drawn) [Example 256, (3R)-N-{2-cyano-3-[2-(2-fluoro-4-methoxyphenyl)ethyl]-4-oxo-3,4-dihydroquinazolin-7-yl}-3-(fluoromethyl)-N′-[(1S,2S,5R)-26,6-trimethylbicyclo[3.1.1]hept-3-yl]piperazine-1-carboximidamide]: the “Half-Lives (h) Brain” value (brain t1/2, 30 mg/kg oral gavage (PO)) came to 15 h. The “Half-Lives (h) Liver” value (liver t1/2, 30 mg/kg oral gavage (PO)) is reported as 4.3 h. Moreover, for the setting “plasma t1/2, 30 mg/kg oral gavage (PO)”, the “Half-Lives (h) Plasma” value was 5.4 h.

With `C[C@@H]1C(/N=C(/Nc2ccc3c(=O)n(CCc4ccc(Cl)cc4Cl)c(-c4cnccn4)nc3c2)N2CC(=O)N[C@@H](C)C2)C[C@H]2C[C@@H]1C2(C)C` (stereo partly drawn) [Example 229, (3S)-N-{3-[2-(2,4-dichlorophenyl)ethyl]-4-oxo-2-pyrazin-2-yl-3,4-dihydroquinazolin-7-yl}-3-methyl-5-oxo-N′-[(1S,2S3S,5R)-2,6,6-trimethylbicyclo[3.1.1]hept-3-yl]piperazine-1-carboximidamide], the half-life is, setting by setting: under setting [4], 13 h; under setting [1], 16 h; under setting [2], 9 h.

`COc1ccc(CCn2c(N3CCOCC3)nc3cc(NC(=N[C@H]4C[C@H]5C[C@@H]([C@@H]4C)C5(C)C)N4CCN[C@@H](CF)C4)ccc3c2=O)c(F)c1` [Example 253]: the half-life is 27 h under setting [4], 14 h under setting [3], 6.9 h under setting [1] and 7.3 h under setting [2].

In the case of `COc1ccc(CCn2c(NC3CC3)nc3cc(NC(=N[C@H]4C[C@H]5C[C@@H]([C@@H]4C)C5(C)C)N4CC(=O)N[C@@H](C)C4)ccc3c2=O)c(F)c1` [Example 224, (3S)-N-{2-(cyclopropylamino)-3-[2-(2-fluoro-4-methoxyphenyl)ethyl]-4-oxo-3,4-dihydroquinazolin-7-yl}-3-methyl-5-oxo-N′-[(1S,2S,3S,5R)-2,6,6-trimethylbicyclo[3.1.1]hept-3-yl]piperazine-1-carboximidamide], the half-life is 10 h under setting [4], 3.1 h under setting [1] and 3 h under setting [2].

For `COc1ccc(CCn2c(-c3cccnc3)nc3cc(NC(=N[C@H]4C[C@H]5C[C@@H]([C@@H]4C)C5(C)C)N4CCN(O)[C@@H](C)C4)ccc3c2=O)c(F)c1` [Example 245, (3S)-N-{3[2(2-fluoro-4-methoxyphenyl)ethyl]-4-oxo-2-pyridin-3-yl-3,4-dihydroquinazolin-7-yl}-4-hydroxy-3-methyl-N′-[(1S,2S,3S,5R)-2,6,6-trimethylbicyclo[3.1.1]hept-3-yl]piperazine-1-carboximidamide], the half-life reads like this: under setting [4], 3.1 h; under setting [3], 1.7 h; under setting [1], 5.2 h; under setting [2], 2.2 h.

For `COc1ccc(CCn2c(NC3CC3)nc3cc(NC(=N[C@H]4C[C@H]5C[C@@H]([C@@H]4C)C5(C)C)N4CCN[C@@H](CF)C4)ccc3c2=O)c(F)c1` [Example 258, (3R)-N-{2-(cyclopropylamino)-3-(2-(2-fluoro-4-methoxyphenyl)ethyl]-4-oxo-3,4-dihydroquinazolin-7-yl}-3-(fluoromethyl)-N′-[(1S,2S,3S,5R)-2,6,6-trimethylbicyclo[3.1.1]hept-3-yl]piperazine-1-carboximidamide], the half-life by setting is: under setting [1], 2.9 h; under setting [2], 5.3 h.

With `COc1ccc(CCn2c(-c3nnc[nH]3)nc3cc(NC(=N[C@H]4C[C@H]5C[C@@H]([C@@H]4C)C5(C)C)N4CCN[C@@H](CF)C4)ccc3c2=O)c(F)c1` [Example 252, (3R)-N-[3-[2-(2-fluoro-4-methoxyphenyl)ethyl]-4-oxo-2-(4H-1,2,4-triazol-3-yl)-3,4-dihydroquinazolin-7-yl]-3-(fluoromethyl)-N′-[(1S,2S,3S,5R)-2,6,6-trimethylbicyclo[3.1.1]hept-3-yl]piperazine-1-carboximidamide], the half-life under setting [3] was 8.4 h and the half-life under setting [1] was 16 h.

On to `COc1ccc(CCn2c(-c3nccs3)nc3cc(NC(=N[C@H]4C[C@H]5C[C@@H]([C@@H]4C)C5(C)C)N4CCN[C@@H](CF)C4)ccc3c2=O)c(F)c1` [Example 254, (3R)-N-[3-[2-(2-fluoro-4-methoxyphenyl)ethyl]-4-oxo-2-(1,3-thiazol-2-yl)-3,4-dihydroquinazolin-7-yl]-3-(fluoromethyl)-N′-[(1 S,2S,3S,5R)-2,6,6-trimethylbicyclo[3.1.1]hept-3-yl]piperazine-1-carboximidamide], for which the half-life under setting [4] is 11 h, the half-life under setting [3] is 9.6 h, the half-life under setting [1] is 20 h and the half-life under setting [2] is 15 h.

Consider `COc1ccc(CCn2c(-c3cccnc3)nc3cc(N/C(=N/[C@H]4C[C@@H]5C[C@H]([C@@H]4C)C5(C)C)N4C[C@@H](C)N(C#N)[C@@H](C)C4)ccc3c2=O)c(F)c1` [Example 295], for which the half-life was 4.9 h under setting [4], 9.5 h under setting [1] and 3.3 h under setting [2].

As to `COc1ccc(CCn2c(-c3cccnc3)nc3cc(NC(=N[C@H]4C[C@H]5C[C@@H]([C@@H]4C)C5(C)C)N4CC(=O)N[C@@H](C)C4)ccc3c2=O)c(F)c1` [Example 216, (3S)-N-{3-[2-(2-fluoro-4-methoxyphenyl)ethyl]-4-oxo-2-pyridin-3-yl-3,4-dihydroquinazolin-7-yl}-3-methyl-5-oxo-N′-[(1S,2S,3S,5R)-2,6,6-trimethylbicyclo[3.1.1]hept-3-yl]piperazine-1-carboximidamide], the half-life was 14 h under setting [4], 2.7 h under setting [3], 2.1 h under setting [1] and 1.9 h under setting [2].

For `COc1ccc(CCn2c(-c3cnccn3)nc3cc(NC(=N[C@H]4C[C@H]5C[C@@H]([C@@H]4C)C5(C)C)N4CCN[C@@H](C(F)F)C4)ccc3c2=O)c(F)c1` [Example 234, (3R)-3-(difluoromethyl)-N-{3-[2-(2-fluoro-4-methoxyphenyl)ethyl]-4-oxo-2-pyrazin-2-yl-3,4-dihydroquinazolin-7-yl}-N′-[(1S,2S,3S,5R)-2,6,6-trimethylbicyclo[3.1.1]hept-3-yl]piperazine-1-carboximidamide], the half-life runs as follows: under setting [4], 2.6 h; under setting [1], 4.9 h; under setting [2], 3.5 h.

Take `C[C@@H]1[C@@H](N=C(Nc2ccc3c(=O)n(CCc4ccc(Cl)cc4)c(-c4cnccn4)nc3c2)N2CCN[C@@H](C(F)F)C2)C[C@H]2C[C@@H]1C2(C)C` [Example 235, (3R)-N-{3-[2-(4-chlorophenyl)ethyl]-4-oxo-2-pyrazin-2-yl-3,4-dihydroquinazolin-7-yl}-3-(difluoromethyl)-N′-[(1 S,2S,3S,5R)-2,6,6-trimethylbicyclo[3.1.1]hept-3-yl]piperazine-1-carboximidamide]: the half-life reads like this: under setting [4], 6.1 h; under setting [1], 5.6 h; under setting [2], 4.7 h.

In the case of `COc1ccc(CCn2c(N3CCOCC3)nc3cc(NC(=N[C@H]4C[C@H]5C[C@@H]([C@@H]4C)C5(C)C)N4CC(=O)N[C@@H](C)C4)ccc3c2=O)c(F)c1` [Example 221, (3S)-N-{3-[2-(2-fluoro-4-methoxyphenyl)ethyl]-2-morpholin-4-yl-4-oxo-3,4-dihydroquinazolin-7-yl}-3-methyl-5-oxo-N′-[(1S,2S,3S,5R)-2,6,6-trimethylbicyclo[3.1.1]hept-3-yl]piperazine-1-carboximidamide], the half-life reads like this: under setting [4], 6.9 h; under setting [1], 2.9 h; under setting [2], 2.9 h.
